Assay [1] concerns the target T1, thioredoxin reductase 1 (TrxR) (Rattus norvegicus, UniProt O89049).
T1 sequence (O89049 1-499): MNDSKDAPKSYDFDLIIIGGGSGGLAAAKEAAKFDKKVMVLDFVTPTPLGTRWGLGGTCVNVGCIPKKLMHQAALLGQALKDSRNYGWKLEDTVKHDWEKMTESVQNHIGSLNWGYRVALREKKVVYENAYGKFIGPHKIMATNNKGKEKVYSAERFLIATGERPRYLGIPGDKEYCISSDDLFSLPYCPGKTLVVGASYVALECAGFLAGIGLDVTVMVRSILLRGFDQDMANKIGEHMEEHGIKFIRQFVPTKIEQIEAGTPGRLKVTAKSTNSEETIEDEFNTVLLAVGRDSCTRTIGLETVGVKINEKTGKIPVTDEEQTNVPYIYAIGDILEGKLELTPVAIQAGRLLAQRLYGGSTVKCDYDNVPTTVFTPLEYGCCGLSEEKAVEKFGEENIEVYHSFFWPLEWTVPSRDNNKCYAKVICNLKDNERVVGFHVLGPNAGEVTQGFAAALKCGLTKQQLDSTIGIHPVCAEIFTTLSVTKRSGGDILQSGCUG
As to the kind of experiment: DTNB reduction assay.

In assay [2] the target is T1, thioredoxin reductase 1 (TrxR). As to the kind of experiment: biochemical.

The text below walks through data of article PMC3469748 (Molecular and cellular biochemistry, 2012).

Broadly, the IC50 is the concentration that inhibits the measured activity by half. Low values mean greater potency, high ones weaker potency. The molecule `CNC(=O)N(N(CCCl)S(C)(=O)=O)S(C)(=O)=O` [Laromustine, 1,2-bis(methylsulfonyl)-1-(2-chloroethyl)-2-[(methylamino)carbonyl]hydrazine] came in with an IC50 in assay [1] of 4.65 ± 0.37 µM.
Same read-out and setting: the result for `CNC(=O)N(NS(C)(=O)=O)S(C)(=O)=O` [101MDCE] reads 5.37 ± 0.58 µM.
Consider `O=NN(CCCl)C(=O)NCCCl` [Carmustine, 1,3-bis(2-chloroethyl)-1-nitrosourea], for which, in assay [2], the IC50 came to 7.63 ± 0.72 µM.
